Values of other authors as cited in US20230390251A1, “METHODS OF TREATING RIBONUCLEOTIDE REDUCTASE-RELATED DISEASES WITH A RIBONUCLEOTIDE REDUCTASE INHIBITOR” (TAIHO PHARMACEUTICAL CO., LTD., priority 2020, published 2023).

Tests used:
[1] = biological target: T1, Ribonucleotide reductase (RNR) (Homo sapiens, UniProt P23921+P31350); settings: from the literature (NPL 7; PL 1); cited from earlier work
T1 sequence (P23921 1-792): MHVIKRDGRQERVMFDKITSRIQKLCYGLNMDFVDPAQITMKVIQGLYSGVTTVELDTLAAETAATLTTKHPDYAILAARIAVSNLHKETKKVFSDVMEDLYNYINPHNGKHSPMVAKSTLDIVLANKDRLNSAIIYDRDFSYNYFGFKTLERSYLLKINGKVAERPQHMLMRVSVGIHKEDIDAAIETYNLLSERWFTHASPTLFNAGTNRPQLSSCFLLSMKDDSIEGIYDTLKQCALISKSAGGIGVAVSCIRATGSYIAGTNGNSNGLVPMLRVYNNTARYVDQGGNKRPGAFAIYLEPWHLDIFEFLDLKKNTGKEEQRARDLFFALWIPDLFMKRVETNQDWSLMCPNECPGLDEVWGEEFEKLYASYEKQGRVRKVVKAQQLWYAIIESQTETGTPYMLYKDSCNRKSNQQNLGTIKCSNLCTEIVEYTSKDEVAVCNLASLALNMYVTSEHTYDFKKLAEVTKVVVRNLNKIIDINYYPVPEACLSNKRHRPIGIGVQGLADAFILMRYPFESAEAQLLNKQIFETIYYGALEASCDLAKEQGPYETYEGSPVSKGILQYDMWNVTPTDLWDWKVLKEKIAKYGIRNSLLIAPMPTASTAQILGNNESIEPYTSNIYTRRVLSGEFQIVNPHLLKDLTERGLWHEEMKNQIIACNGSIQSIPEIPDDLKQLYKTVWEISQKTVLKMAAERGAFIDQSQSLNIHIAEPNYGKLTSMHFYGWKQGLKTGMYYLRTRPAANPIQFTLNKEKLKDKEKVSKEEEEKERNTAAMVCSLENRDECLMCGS
T1 sequence (P31350 1-389): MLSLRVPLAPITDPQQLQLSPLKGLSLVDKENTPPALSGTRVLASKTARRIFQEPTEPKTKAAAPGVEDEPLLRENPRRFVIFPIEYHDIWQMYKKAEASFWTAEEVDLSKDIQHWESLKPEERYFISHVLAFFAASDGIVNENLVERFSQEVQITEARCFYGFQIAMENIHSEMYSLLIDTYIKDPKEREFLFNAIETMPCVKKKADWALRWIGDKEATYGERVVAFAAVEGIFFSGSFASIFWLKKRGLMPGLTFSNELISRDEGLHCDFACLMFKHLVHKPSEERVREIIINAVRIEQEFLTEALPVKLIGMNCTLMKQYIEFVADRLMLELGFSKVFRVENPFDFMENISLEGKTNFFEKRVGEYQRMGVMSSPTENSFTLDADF

[2] = from the literature (NPL 10); off-target effect on Fe ion-containing proteins; cited from earlier work

Structure (SMILES)	RNR inhibitory activity [1]	side effects in clinical cases [2]
NC(=O)NO [HU, hydroxyurea, reference compound]	weak	–
NC(=S)NN=Cc1ncccc1N [Compound 3-AP, 3-aminopyridine-2-carboxaldehyde thiosemicarbazone]	–	side effects such as hypoxia, dyspnea, methemoglobinemia
